What all share (format): cell-based
The test system of assay [1] is TNF-α production by human PBMCs. Nature of the assay: inhibition of LPS-stimulated TNF-α production. As to conditions: PBMC, LPS 1 μg/mL, 24 hours, positive control. The procedure: TNF-α production by human PBMCs was stimulated using lipopolysaccharide (1 μg/mL) based on a procedure by Schindler et al. (Schindler R et al. Correlations and Interactions in the Production of Interleukin (IL)-6, IL-1, and Tumor Necrosis Factor (TNF) in Human Blood Mononuclear Cells: IL-6 Suppresses IL-1 and TNF. Blood, 75:40-47, 1990). The levels of TNF-α were measured 24 hours following LPS stimulation with a commercially available enzyme-immuno assay (EIA) kit and spectrophotometric measurements were performed with a microplate reader (MRX, Dynatech). The compositions of the present invention were tested in this study were 1, 10, and 50 μg/mL in duplicate. […] The suppression caused by test compounds is expressed as the percent decrease relative to the vehicle control value.

For assay [2], the system named is IL-2 production from human PBMC. Nature of the assay: inhibition of PHA-stimulated IL-2 production. As to conditions: PHA 20 μg/mL, 48 hours, positive control. The procedure: In this example, the ability of lanolin fractions to inhibit PHA-stimulated IL-2 production from human peripheral blood mononuclear cells (PBMCs) was assayed. IL-2 production from human PBMC was stimulated by phytohemagglutanin (20 μg/mL) based on a procedure described by Konno et al. (Konno S. I. et al. “Inhibition of Cytokine Production from Human Peripheral Blood Leukocytes by Anti-allergic Agents in vitro.” Eur. J. Pharmacol, 264:265-268, 1994) wherein IL-2 levels were measured 48 hours post-stimulation with a commercially available enzyme-immuno assay (EIA) kit and spectrophotometric measurements were performed with a microplate reader (MRX, Dynatech.) The various compositions of the present invention were tested at final concentrations of […], in duplicate. Dexamethasone was used as the positive control in these studies; the IC50 of dexamethasone was 5 nM. The levels of suppression caused by the test compounds are expressed as the percent decrease relative to the vehicle control values.

Assay [3] has as its system B-lymphocytes isolated from mouse spleen. The assay can be described thus: B-lymphocyte proliferation assay (LPS, [3H]thymidine incorporation). Particulars: B-cell, read-out: IC50, suppression of B-cell proliferation. The procedure:
B-lymphocytes were isolated from mouse spleen by standard methods, and suspended in DMEM. A total of 10^6 cells/ml were incubated overnight at 37° C. in the presence of 1 μg/ml lipopolysaccharide (LPS) to assess stimulation (positive score, related to control) or suppression (negative score, related to control) of cell proliferation. Test substances were evaluated under these conditions at a pre-defined concentration. After overnight incubation, 2 μCi [^3H]thymidine was added to each well. Cells were harvested. after an additional 48 hours incubation, and thymidine incorporation assessed by liquid scintillation counting.

For assay [4], the system named is T-lymphocytes isolated from mouse thymus. Nature of the assay: T-lymphocyte proliferation assay (Con A, [3H]thymidine incorporation). Particulars: read-out: IC50, suppression of T-cell proliferation. The procedure: T-lymphocytes were isolated from mouse thymus by standard methods, and suspended in DMEM (see, e.g., Mishell B B and Shiigi S M, eds., “Cell Proliferation” in Selected Methods in Cellular Immunology, V, XXIX, W. H. Freeman Co., San Francisco, Calif. pp. 153-160, 1980 and Dayton et al. (1992) Mol. Pharmacol. 41: 671-676). A total of 5×10^6 cells/ml were incubated overnight at 37° C. in the presence of 3 μg/ml Con A to assess stimulation (positive score, related to 10 U/ml of rat interleukin-2) or suppression (negative score, related to control) of cell proliferation. Test substances were evaluated under these conditions at a pre-defined concentration. After overnight incubation, 2 μCi [^3H]thymidine was added to each well. Cells were harvested after an additional 48 hours incubation, and thymidine incorporation assessed by liquid scintillation counting.
All 40 fractions were subsequently tested in the ConA-induced T-cell proliferation assay, the same assay described in Example 4. Fractions providing greater than or equal to 40% suppression are considered active.
Background: Dividing cells build labelled thymidine or BrdU into new DNA.

Where two headings read alike, the source gives them in different places.

In the case of `C[C@@H]1C[C@H]2[C@@H]3CCC4=CC(=O)C=C[C@]4(C)[C@@]3(F)[C@@H](O)C[C@]2(C)[C@@]1(O)C(=O)CO` [dexamethasone], the IC50 was about 0.016 µM in assay [1] and 0.005 µM in assay [2].
Regarding `Cn1cnc([N+](=O)[O-])c1Sc1ncnc2nc[nH]c12` [azathioprine], the IC50 in assay [3] (compounds known to suppress) and in assay [4] (positive controls) was over 10 µM throughout.
In the case of `O=P1(N(CCCl)CCCl)NCCCO1` (stereo not drawn) [cyclophosphamide], the IC50 in assay [3] and in assay [4] was over 10 µM in each case.

(Values after US20020182260A1, “Anti-inflammatory agents and methods for their preparation and use” (Cellegy Pharmaceuticals, Inc., priority 1998, published 2002).)
